In ChEMBL document CHEMBL1201861, “Genomics of Drug Sensitity in Cancer screening data, Wellcome Trust Sanger Institute”:

Columns and labels:
Assay in all cases: cells
Format in all cases: functional, cell-based, Homo sapiens
[1] = system: RKO; conditions: Homo sapiens, RKO;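 also: growth inhibition of human RKO cells, read out with a cell viability assay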
Description: SANGER: Inhibition of human RKO cell growth in a cell viability assay.

[2] = system: KS-1; conditions: Homo sapiens, KS-1;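 also: growth inhibition of KS-1 cells, read out with a cell viability assay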
Description: SANGER: Inhibition of human KS-1 cell growth in a cell viability assay.

[3] = system: NCI-H1155; conditions: Homo sapiens, NCI-H1155;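 also: cell growth inhibition measured by a viability assay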
Description: SANGER: Inhibition of human NCI-H1155 cell growth in a cell viability assay.

[4] = system: CP66-MEL; conditions: Homo sapiens, CP66-MEL;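 also: growth inhibition of CP66-MEL cells determined in a cell viability assay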
Description: SANGER: Inhibition of human CP66-MEL cell growth in a cell viability assay.

[5] = system: MMAC-SF; conditions: Homo sapiens, MMAC-SF;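 also: growth inhibition of human MMAC-SF cells, read out with a cell viability assay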
Description: SANGER: Inhibition of human MMAC-SF cell growth in a cell viability assay.

[6] = system: COLO-800; conditions: Homo sapiens, COLO-800;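 also: growth inhibition of COLO-800 cells, read out with a cell viability assay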
Description: SANGER: Inhibition of human COLO-800 cell growth in a cell viability assay.

[7] = system: TK-10; conditions: Homo sapiens, TK-10;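 also: growth inhibition of TK-10 cells, read out in a cell viability assay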
Description: SANGER: Inhibition of human TK10 cell growth in a cell viability assay.

[8] = system: NCI-H747; conditions: Homo sapiens, NCI-H747;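 also: growth inhibition of human NCI-H747 cells, read out by a cell viability assay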
Description: SANGER: Inhibition of human NCI-H747 cell growth in a cell viability assay.

[9] = system: RS4-11; conditions: Homo sapiens, RS4-11;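 also: growth inhibition of RS4-11 cells, read out by a cell viability assay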
Description: SANGER: Inhibition of human RS4-11 cell growth in a cell viability assay.

[10] = system: MHH-NB-11; conditions: Homo sapiens, MHH-NB-11;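 also: growth inhibition of human MHH-NB-11 cells, read out by a cell viability assay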
Description: SANGER: Inhibition of human MHH-NB-11 cell growth in a cell viability assay.

[11] = system: ES8; conditions: Homo sapiens, ES8;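 also: growth inhibition of human ES8 cells, read out with a cell viability assay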
Description: SANGER: Inhibition of human ES8 cell growth in a cell viability assay.

[12] = system: CCRF-CEM; conditions: Homo sapiens, CCRF-CEM;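 also: inhibition of CCRF-CEM cell growth, measured by a cell viability assay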
Description: SANGER: Inhibition of human CCRF-CEM cell growth in a cell viability assay.

[13] = system: OMC-1; conditions: Homo sapiens, OMC-1;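 also: growth inhibition of the OMC-1 cell line, measured by a cell viability assay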
Description: SANGER: Inhibition of human OMC-1 cell growth in a cell viability assay.

[14] = system: LS-513; conditions: Homo sapiens, LS-513
Description: SANGER: Inhibition of human LS-513 cell growth in a cell viability assay.

[15] = system: LB373-MEL-D; conditions: Homo sapiens, LB373-MEL-D;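 also: growth inhibition of the cell line, read out in a cell viability assay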
Description: SANGER: Inhibition of human LB373-MEL-D cell growth in a cell viability assay.

[16] = system: ACN; conditions: Homo sapiens, ACN;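 also: growth inhibition of the human ACN cell line, read out via cell viability testing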
Description: SANGER: Inhibition of human ACN cell growth in a cell viability assay.

[17] = system: NCI-H1092; conditions: Homo sapiens, NCI-H1092;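 also: cell growth inhibition measured with a cell viability assay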
Description: SANGER: Inhibition of human NCI-H1092 cell growth in a cell viability assay.

[18] = system: SK-LMS-1; conditions: Homo sapiens, SK-LMS-1;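 also: growth inhibition of human SK-LMS-1 cells, read out with a cell viability assay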
Description: SANGER: Inhibition of human SK-LMS-1 cell growth in a cell viability assay.

[19] = system: D283 Med; conditions: Homo sapiens, D283 Med
Description: SANGER: Inhibition of human D-283MED cell growth in a cell viability assay.

[20] = system: KM-H2; conditions: Homo sapiens, KM-H2;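 also: growth inhibition of KM-H2 cells, read out by a cell viability assay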
Description: SANGER: Inhibition of human KM-H2 cell growth in a cell viability assay.

[21] = system: HOP-62; conditions: Homo sapiens, HOP-62;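 also: cell growth inhibition determined with a viability assay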
Description: SANGER: Inhibition of human HOP-62 cell growth in a cell viability assay.

[22] = system: SK-PN-DW; conditions: Homo sapiens, SK-PN-DW;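 also: growth inhibition measured with a viability assay on these cells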
Description: SANGER: Inhibition of human SK-PN-DW cell growth in a cell viability assay.

[23] = system: BE-13; conditions: Homo sapiens, BE-13;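 also: growth inhibition of human BE-13 cells, measured with a cell viability assay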
Description: SANGER: Inhibition of human BE-13 cell growth in a cell viability assay.

[24] = system: GT3TKB; conditions: Homo sapiens, GT3TKB;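 also: growth inhibition of the cell line, read out with a cell viability assay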
Description: SANGER: Inhibition of human GT3TKB cell growth in a cell viability assay.

[25] = system: NB10; conditions: Homo sapiens, NB10;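 also: growth inhibition of NB10 cells, read out by a cell viability assay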
Description: SANGER: Inhibition of human NB10 cell growth in a cell viability assay.

[26] = system: D-502MG; conditions: Homo sapiens, D-502MG
Description: SANGER: Inhibition of human D-502MG cell growth in a cell viability assay.

[27] = system: ATN-1; conditions: Homo sapiens, ATN-1;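 also: growth inhibition of human ATN-1 cells, read out with a cell viability assay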
Description: SANGER: Inhibition of human ATN-1 cell growth in a cell viability assay.

[28] = system: NEC8; conditions: Homo sapiens, NEC8;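 also: growth inhibition of human NEC8 cells, read out by a cell viability assay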
Description: SANGER: Inhibition of human NEC8 cell growth in a cell viability assay.

[29] = system: KARPAS-299; conditions: Homo sapiens, KARPAS-299
Description: SANGER: Inhibition of human KARPAS-299 cell growth in a cell viability assay.

[30] = system: HT; conditions: Homo sapiens, HT
Description: SANGER: Inhibition of human HT cell growth in a cell viability assay.

[31] = system: EW-3; conditions: Homo sapiens, EW-3;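 also: cell viability assay read-out, IC50 reflects inhibition of growth of the EW-3 cells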
Description: SANGER: Inhibition of human EW-3 cell growth in a cell viability assay.

[32] = system: KNS-81-FD; conditions: Homo sapiens, KNS-81-FD;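 also: growth inhibition of KNS-81-FD cells, read out with a cell viability assay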
Description: SANGER: Inhibition of human KNS-81-FD cell growth in a cell viability assay.

[33] = system: BB65-RCC; conditions: Homo sapiens, BB65-RCC;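 also: growth inhibition of the cell line, measured with a cell viability assay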
Description: SANGER: Inhibition of human BB65-RCC cell growth in a cell viability assay.

[34] = system: HDLM-2; conditions: Homo sapiens, HDLM-2;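 also: cell viability assay measuring suppression of HDLM-2 proliferation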
Description: SANGER: Inhibition of human HDLM-2 cell growth in a cell viability assay.

[35] = system: KLE; conditions: Homo sapiens, KLE;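 also: growth inhibition of human KLE cells, read out with a cell viability assay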
Description: SANGER: Inhibition of human KLE cell growth in a cell viability assay.

[36] = system: NCI-H1770; conditions: Homo sapiens, NCI-H1770;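 also: growth inhibition of NCI-H1770 cells determined with a viability readout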
Description: SANGER: Inhibition of human NCI-H1770 cell growth in a cell viability assay.

[37] = system: ES3; conditions: Homo sapiens, ES3;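 also: growth inhibition of ES3 cells, read out with a cell viability assay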
Description: SANGER: Inhibition of human ES3 cell growth in a cell viability assay.

[38] = system: LB1047-RCC; conditions: Homo sapiens, LB1047-RCC;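 also: inhibition of cell growth, determined with a cell viability assay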
Description: SANGER: Inhibition of human LB1047-RCC cell growth in a cell viability assay.

[39] = system: IST-MES1; conditions: Homo sapiens, IST-MES1;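 also: growth inhibition of IST-MES1 cells, measured with a cell viability assay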
Description: SANGER: Inhibition of human IST-MES1 cell growth in a cell viability assay.

[40] = system: HCC 2998; conditions: Homo sapiens, HCC 2998;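 also: growth inhibition of human HCC2998 cells, measured with a cell viability read-out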
Description: SANGER: Inhibition of human HCC2998 cell growth in a cell viability assay.

[41] = system: NCI-H1648; conditions: Homo sapiens, NCI-H1648;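 also: cell viability assay measuring inhibition of NCI-H1648 cell growth, from the Sanger screening data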
Description: SANGER: Inhibition of human NCI-H1648 cell growth in a cell viability assay.

[42] = system: NCI-H69; conditions: Homo sapiens, NCI-H69;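 also: growth inhibition of the cell line, read out with a cell viability assay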
Description: SANGER: Inhibition of human NCI-H69 cell growth in a cell viability assay.

[43] = system: EW-18; conditions: Homo sapiens, EW-18;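 also: growth inhibition of EW-18 cells, read out by a cell viability assay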
Description: SANGER: Inhibition of human EW-18 cell growth in a cell viability assay.

[44] = system: JVM-3; conditions: Homo sapiens, JVM-3;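 also: growth inhibition of human JVM-3 cells, read out with a cell viability assay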
Description: SANGER: Inhibition of human JVM-3 cell growth in a cell viability assay.

[45] = system: IST-MEL1; conditions: Homo sapiens, IST-MEL1;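 also: growth inhibition of the cell line, read out with a cell viability assay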
Description: SANGER: Inhibition of human IST-MEL1 cell growth in a cell viability assay.

[46] = system: LC-2-ad; conditions: Homo sapiens, LC-2-ad;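 also: growth inhibition of human LC-2-ad cells, read out with a cell viability assay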
Description: SANGER: Inhibition of human LC-2-ad cell growth in a cell viability assay.

[47] = system: EC-GI-10; conditions: Homo sapiens, EC-GI-10
Description: SANGER: Inhibition of human EC-GI-10 cell growth in a cell viability assay.

SMILES: CC(C)CCN1c2nc(Nc3cc(F)c(O)c(F)c3)ncc2N(C)C(=O)C1C (stereo not given)
- IC50 [1]: 4730 nM
- IC50 [2]: > 5000 nM
- IC50 [3]: > 5 µM
- IC50 [4]: > 5000 nM
- IC50 [5]: > 5 µM
- IC50 [6]: 2540 nM
- IC50 [7]: > 5000 nM
- IC50 [8]: > 5000 nM
- IC50 [9]: > 5000 nM
- IC50 [10]: > 5 µM
- IC50 [11]: 1880 nM
- IC50 [12]: > 5000 nM
- IC50 [13]: > 5000 nM
- IC50 [14]: > 5000 nM
- IC50 [15]: > 5000 nM
- IC50 [16]: 2670 nM
- IC50 [17]: > 5 µM
- IC50 [18]: > 5000 nM
- IC50 [19]: 2240 nM
- IC50 [20]: > 5 µM
- IC50 [21]: 4310 nM
- IC50 [22]: > 5 µM
- IC50 [23]: 1590 nM
- IC50 [24]: 3760 nM
- IC50 [25]: 1780 nM
- IC50 [26]: 3.07 µM
- IC50 [27]: 4.42 µM
- IC50 [28]: 1700 nM
- IC50 [29]: > 5 µM
- IC50 [30]: > 5 µM
- IC50 [31]: 35.8 nM
- IC50 [32]: > 5000 nM
- IC50 [33]: 3450 nM
- IC50 [34]: > 5 µM
- IC50 [35]: > 5000 nM
- IC50 [36]: > 5 µM
- IC50 [37]: > 5000 nM
- IC50 [38]: 4.1 µM
- IC50 [39]: > 5000 nM
- IC50 [40]: > 5 µM
- IC50 [41]: > 5000 nM
- IC50 [42]: 2720 nM
- IC50 [43]: 622 nM
- IC50 [44]: 3070 nM
- IC50 [45]: > 5000 nM
- IC50 [46]: > 5000 nM

SMILES: CCN(CC)CCCCNc1ncc2cc(-c3cc(OC)cc(OC)c3)c(NC(=O)NC(C)(C)C)nc2n1 [PD-173074]
- IC50 [1]: > 2000 nM
- IC50 [2]: > 2000 nM
- IC50 [3]: > 2 µM
- IC50 [5]: > 2 µM
- IC50 [6]: > 2000 nM
- IC50 [7]: > 2000 nM
- IC50 [8]: > 2000 nM
- IC50 [9]: 1340 nM
- IC50 [10]: > 2 µM
- IC50 [11]: > 2000 nM
- IC50 [12]: > 2000 nM
- IC50 [13]: > 2000 nM
- IC50 [14]: > 2000 nM
- IC50 [16]: > 2000 nM
- IC50 [17]: > 2 µM
- IC50 [19]: > 2000 nM
- IC50 [20]: > 2 µM
- IC50 [22]: > 2 µM
- IC50 [23]: > 2000 nM
- IC50 [24]: > 2000 nM
- IC50 [25]: > 2000 nM
- IC50 [26]: > 2 µM
- IC50 [27]: > 2 µM
- IC50 [28]: 563 nM
- IC50 [29]: > 2 µM
- IC50 [30]: > 2 µM
- IC50 [31]: > 2000 nM
- IC50 [32]: > 2000 nM
- IC50 [33]: > 2000 nM
- IC50 [34]: > 2 µM
- IC50 [35]: > 2000 nM
- IC50 [36]: > 2 µM
- IC50 [37]: > 2000 nM
- IC50 [38]: > 2 µM
- IC50 [39]: > 2000 nM
- IC50 [40]: > 2 µM
- IC50 [41]: > 2000 nM
- IC50 [42]: > 2000 nM
- IC50 [43]: > 2000 nM
- IC50 [44]: > 2000 nM
- IC50 [45]: > 2000 nM
- IC50 [46]: > 2000 nM

SMILES: CC(C)c1ccccc1Cc1cc(C(=O)Nc2ccc(S(=O)(=O)c3ccccc3C(C)(C)C)cc2)c(O)c(O)c1O
- IC50 [1]: 15.2 nM
- IC50 [2]: 322 nM
- IC50 [4]: 1200 nM
- IC50 [5]: 3.14 µM
- IC50 [6]: 183 nM
- IC50 [7]: 462 nM
- IC50 [8]: 130 nM
- IC50 [11]: 119 nM
- IC50 [13]: 565 nM
- IC50 [14]: 607 nM
- IC50 [15]: 431 nM
- IC50 [16]: 696 nM
- IC50 [18]: 272 nM
- IC50 [19]: 284 nM
- IC50 [21]: 365 nM
- IC50 [24]: 301 nM
- IC50 [25]: 215 nM
- IC50 [26]: 4.92 µM
- IC50 [28]: 145 nM
- IC50 [32]: 248 nM
- IC50 [33]: 135 nM
- IC50 [35]: 1940 nM
- IC50 [37]: 359 nM
- IC50 [38]: 0.319 µM
- IC50 [39]: 214 nM
- IC50 [40]: 5.89 µM
- IC50 [41]: 1120 nM
- IC50 [47]: 470 nM
- IC50 [45]: 228 nM
- IC50 [46]: 424 nM

SMILES: COc1cc2c(Nc3ccc(NC(=O)c4ccccc4)cc3)ncnc2cc1OCCCN1CCOCC1
- IC50 [1]: 707 nM
- IC50 [2]: > 4000 nM
- IC50 [3]: 3.04 µM
- IC50 [5]: > 4 µM
- IC50 [6]: 1700 nM
- IC50 [7]: > 4000 nM
- IC50 [8]: 2030 nM
- IC50 [9]: 554 nM
- IC50 [10]: > 4 µM
- IC50 [11]: 498 nM
- IC50 [12]: 1870 nM
- IC50 [13]: > 4000 nM
- IC50 [14]: > 4000 nM
- IC50 [16]: > 4000 nM
- IC50 [17]: > 4 µM
- IC50 [19]: > 4000 nM
- IC50 [20]: > 4 µM
- IC50 [22]: > 4 µM
- IC50 [23]: 844 nM
- IC50 [24]: > 4000 nM
- IC50 [25]: > 4000 nM
- IC50 [26]: 3.97 µM
- IC50 [27]: > 4 µM
- IC50 [28]: > 4000 nM
- IC50 [29]: > 4 µM
- IC50 [30]: > 4 µM
- IC50 [31]: > 4000 nM
- IC50 [32]: > 4000 nM
- IC50 [33]: > 4000 nM
- IC50 [34]: > 4 µM
- IC50 [35]: > 4000 nM
- IC50 [36]: > 4 µM
- IC50 [37]: 473 nM
- IC50 [38]: > 4 µM
- IC50 [39]: > 4000 nM
- IC50 [40]: > 4 µM
- IC50 [41]: > 4000 nM
- IC50 [42]: > 4000 nM
- IC50 [43]: > 4000 nM
- IC50 [44]: 2750 nM
- IC50 [45]: > 4000 nM
- IC50 [46]: > 4000 nM
